Measured values published in patent publication US11702402B2, “Small molecules that block proteasome-associated ubiquitin receptor RPN13 function and uses thereof” (DANA-FARBER CANCER INSTITUTE, INC., priority 2018, dated 2023).
Where a SMILES comes first, the peptide text is derived from it. The star is where a group is joined. Cbz = O=C(OCc1ccccc1)*

What was measured:
RPN13 = RPN13 (Homo sapiens, UniProt Q16186); experiment: Rpn13 immunoblot in MM.1S cells; format: cell-based; set-up: endogenous in cells; host or cells: MM.1S; MM.1S-CRBN KO; RPMI-8226; ANBL6.BR
Chain of RPN13 (Q16186 whole entry): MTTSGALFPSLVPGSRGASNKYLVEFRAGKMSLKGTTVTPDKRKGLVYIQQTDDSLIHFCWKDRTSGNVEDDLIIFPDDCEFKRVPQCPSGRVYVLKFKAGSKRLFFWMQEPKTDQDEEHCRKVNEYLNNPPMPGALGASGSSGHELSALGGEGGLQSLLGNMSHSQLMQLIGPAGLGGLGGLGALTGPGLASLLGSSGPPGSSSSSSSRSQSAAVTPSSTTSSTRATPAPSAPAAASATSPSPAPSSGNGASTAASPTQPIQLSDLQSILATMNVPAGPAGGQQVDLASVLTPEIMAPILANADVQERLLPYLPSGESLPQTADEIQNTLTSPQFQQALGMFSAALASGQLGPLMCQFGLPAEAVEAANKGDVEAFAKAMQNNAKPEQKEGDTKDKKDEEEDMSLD
Procedure: Protein lysates were loaded on SDS-PAGE and transferred to PVDF membrane, and then immunoblotted with anti-alpha tubulin and Rpn13 antibodies.
In FIG. 17, MM.1S cells were treated with RA190 or JQRA at 200 nM and 400 nM, respectively, for 48 hours; and treated with RA190 or JQRA at 200 nM and 800 nM, respectively, for 48 hours. Protein lysates were loaded on SDS-PAGE and transferred to PVDF membrane, and then immunoblotted with anti-alpha tubulin and Rpn13 antibodies.
MM.1S cells, which were treated with DMSO control, bortezomib, or WL40 at indicated concentration for 3 hours; protein lysates were analyzed for different proteasome activities (CT-L, chymotrypsin-like; T-L, trypsin-like; C-L, caspase-like). FIG. 20B is a bar graph showing percent proteasome activity after normalization with DMSO control (mean±SD; n=3). Recombinant 20S proteasome was incubated with DMSO, bortezomib, or WL40 for 30 minutes, followed by assessment of the above-noted proteasome activities. FIG. 20C MM.1S cells were pretreated with exemplary proteasome inhibitor MG132 (10 μM) for 1 hour, followed by addition of WL40 (400 nM) for 8 hours. […] Total protein lysates were subjected to immunoblots for Rpn13 and α-tubulin. […] FIG. 20E ANBL6.BR cells were treated with WL40 (400 nM) or RA190 (500 nM) for 16 hours; protein lysates were subjected to immunoblot analysis using anti-Rpn13 or anti-β-actin Abs.
Cellular protein extracts were prepared using RIPA lysis buffer (50 mM Tris-HCl, 150 mM NaCl, 1% NP-40, 0.5% sodium deoxycholate, and 0.1% SDS). Protein lysates were subjected to immunoblotting using antibodies against poly ADP ribose polymerase (PARP, BD Bioscience Pharmingen, San Diego, Calif.), caspase 3, caspase 8, p53 (Santa Cruz Biotechnology), caspase 9, p-eIF2a (Abeam, Cambridge, Mass.), caspase 7, cyclin B1, CDC25C, CDCl2, p21, Rpn13, PERK, BIP, Calnexin, GFP, LC3A/B, α-tubulin (Cell Signaling, Beverly, Mass.), polyubiquitin (Enzo Life Sciences, Inc., Farmingdale, N.Y.), or β-actin (Sigma-Aldrich, St. Louis, Mo.).
Next, it was examined whether WL40 decreases cellular Rpn13 levels in MM cells. MM.1S cells were treated with various concentrations of WL40 (20 0 nM, 400 nM, or 800 nM) for 4 hours, 8 hours, and 16 hours; protein lysates were then analyzed for Rpn13 levels using immunoblot analysis. […] Decrease in Rpn13 levels was detectable as early as 8 hours after WL40 treatment and maximally (95%) reduced at 16 hours. Rpn13 protein level reduction was not observed with RA190 treatment (FIG. 19E, lower panel). There was no change in protein levels of tubulin, used as a loading control (FIG. 19E). To further corroborate the findings, MM.1S cells were treated with WL40, and then analyzed intracellular alterations in Rpn13 using flow cytometry.

MM.1S CRBN KO cells = experiment: MM.1S CRBN KO cell viability; format: cell-based, Human; details: MM.1S-CRBN KO; 24 hours; Wst-1
Text: FIGS. […] Wst-1 assay was used to test cell viability.
The experiment was repeated twice and JQRA concentration was increased (as indicated) at the second time.

[1] = system: multiple myeloma cell lines; experiment: Viability of a panel of multiple myeloma cell lines; format: cell-based, Human; details: multiple myeloma cell lines; 48 hours; Wst-1
Text: FIGS. […] Wst-1 assay was used to test cell viability. FIGS. 6A and 6B show the effect of exemplary bifunctional compounds WL40 and WL44 on multiple myeloma cell lines.

MM.1S cells = experiment: MM.1S cell viability (WST); details: 24 hours, Wst-1
Procedure: FIGS. 4A and 4B show multiple myeloma 1S (MM.1S) cells treated with RA190, WL40, and WL44 at the indicated concentrations for 24 hours. Wst-1 assay was used to test cell viability.
In FIG. 13B, multiple myeloma cells (MM.1S) were treated with RA190 or compound JQRA at the indicated concentrations for 72 hours, and the percentage of viable cells was measured.
Purified CD138^+ patient MM cells, which were treated with DMSO control or WL40 at indicated concentrations for 48 hours, followed by assessment for cell viability using CellTiter-Glo assay (mean±SD of triplicate cultures; p<0.001). […] Normal PBMCs from healthy donors were treated with DMSO control or WL40 at indicated concentrations for 48 hours, and then analyzed for cell viability using CellTiter-Glo assay (mean±SD of quadruplicate cultures). […] MM.1S cells were cultured with or without patient BMSCs in the presence or absence of WL40 for 48 hours, and cell proliferation was measured by WST assay (mean±SD; n=3; p<0.0001). […] MM.1S cells were cultured with or without patient pDCs in the presence or absence of WL40 for 48 hours, and cell proliferation was measured by WST assay (mean±SD; n=3; p<0.0001).

[2] = system: HCT116 and HCT116-Rpn13KO cell lines; experiment: HCT116 and HCT116-Rpn13KO cell viability; format: cell-based; details: HCT116 versus HCT116-Rpn13KO; 48 hours; Wst-1
Procedure: FIGS. 8A and 8B show HCT116 and HCT116-Rpn13KO cell lines that were treated with WL40 or WL44 at the indicated concentrations for 48 hours. Wst-1 assay was used to test cell viability.
CRISPR-Cas9 genome editing was performed to generate Rpn13-knockout (Rpn13-KO) HCT116 and MM.1S cell lines. Cells were transfected with Rpn13-CRISPR/Cas9-knockout (KO) plasmid (Santa Cruz Biotechnology, Inc., Santa Cruz, Calif., USA) using Lipofectamine 2000 (Thermo Fisher Scientific, Waltham, Mass., USA) or the cell line Nucleofector Kit V (Amaxa Biosystems, Cologne, Germany), respectively. After 48 h incubation, green fluorescent protein (GFP)-positive cells were sorted. Rpn13 KO was confirmed by both protein expression studies and DNA sequencing.

normal PBMCs = experiment: Viability of normal PBMCs; format: cell-based, Human; details: at the IC50; 48 hours; Wst-1
Procedure: FIGS. 5A and 5B show PBMCs from normal healthy donor treated with WL40 and WL44 at the indicated concentrations for 48 hours. […]
The IC50 of WL40 for cell lines is shown.

[3] = system: Ub-tagged GFP that is constitutively targeted for proteasomal degradation; experiment: Ub-GFP (GFPu-1) reporter cell line immunoblot; format: cell-based; details: WL40, WL44 0.5-2.0 μM; RA190 1 μM; 16 hours
Procedure: Cell lysates were loaded on SDS-PAGE, transferred to PVDF membrane, then immunoblotted with anti-GFP, and anti beta-actin antibodies.
In FIG. 18, a reporter cell line expressing Ub-tagged GFP that is constitutively targeted for proteasomal degradation was treated with RA190 ([…]); and JQRA ([…]) for 16 hours. Cell lysates were loaded on SDS-PAGE, transferred to PVDF membrane, then immunoblotted with anti-GFP, and anti-alpha tubulin antibodies.
FIGS. 19A-19I show the exemplary design and characterization of exemplary Rpn13 degrader WL40. […] WL40 was created by linking the Rpn13 inhibitor RA190 to the IMiD thalidomide as a ligand for the CRBN E3 ligase via a PEG linker. […] FIG. 19C is a schematic cartoon for the novel AlphaScreen assay to measure the binding activity of inhibitor with RPN13 proteins. […] FIG. 19E depicts immunoblot analysis of multiple myeloma 1S (MM.1S) cells, which were treated with WL40 or RA190 at the indicated concentrations and time periods; protein lysates were subjected to the immunoblot analysis using anti-Rpn13 or anti-tubulin Abs. FIG. 19F depicts flow cytometry analysis of MM.1S cells, which were treated with DMSO control, WL40 (400 nM), or RA190 (500 nM) for 16 hours; cells were then washed and stained with Rpn13 Ab conjugated with AlexaFluor-647, followed by the flow cytometry analysis. Isotype Ab conjugated to AlexaFluor-647 was used as control for non-specific binding. Data was quantified using FACS Diva (BD Biosciences, USA) and FlowJo (FlowJo LLC, USA). FIG. 19G depicts immunoblot analysis of MM.1S-CRBN KO cells, which were treated with WL40 (400 nM) or RA190 (500 nM) for 16 hours; protein lysates were subjected to the immunoblot analysis using anti-Rpn13 or anti β-actin Abs. […]
To confirm that CRBN presence is a prerequisite for the function of WL40 in cells, CRBN-knockout (KO) MM.1S cells^27, 38 were utilized, and the effect of WL40 on Rpn13 degradation was examined. […] GFPu-1 cells were treated with WL40, and GFP levels were then analyzed using immunoblotting. […]

Structure (SMILES)	WL40-mediated Rpn13 degradation after proteasome inhibitor pretreatment (RPN13; MM.1S, MG132 (10 μM) 1 hour, then WL40 (400 nM) 8 hours)	cell viability (MM.1S CRBN KO cells)	cell viability IC50 [1]	cell viability IC50 (MM.1S cells)	RPN13 dependence of cytotoxicity [2]	viability of normal PBMCs (normal PBMCs)	Rpn13 levels (immunoblot) (RPN13; MM.1S cells, 200 nM, 400 nM, 800 nM, 4, 8, 16 hours)	Ub-GFP levels / proteasome function (immunoblot) [3]
CC(C)C[C@@H](C=O)NC(=O)[C@H](CC(C)C)NC(=O)[C@H](CC(C)C)NC(=O)OCc1ccccc1 [MG132, reference compound] (Cbz-Leu-Leu-Leu-aldehyde)	blocked WL40-mediated Rpn13 degradation							
O=C1CCC(N2C(=O)c3ccc(NCCOCCOCCOCCC(=O)N[C@H](Cc4ccccc4)C(=O)N4C/C(=C\c5ccc(Cl)c(Cl)c5)C(=O)/C(=C/c5ccc(Cl)c(Cl)c5)C4)cc3C2=O)C(=O)N1 (some centres unmarked) [WL44]		decrease cell viability	high IC50 in several cell lines	lower IC50 compared to compound RA190	RPN13-dependent	do not significantly affect the viability	degrade Rpn13	block proteasome function
